In BindingDB's records for doi:10.1016/j.bioorg.2016.01.003 (Panjab University, 2016):

Assays:
Experiment in all cases: Radioligand Binding Assay
[1] = biological target: T1, Adenosine receptor A1 (Homo sapiens, UniProt P30542)
T1 sequence (P30542 whole entry): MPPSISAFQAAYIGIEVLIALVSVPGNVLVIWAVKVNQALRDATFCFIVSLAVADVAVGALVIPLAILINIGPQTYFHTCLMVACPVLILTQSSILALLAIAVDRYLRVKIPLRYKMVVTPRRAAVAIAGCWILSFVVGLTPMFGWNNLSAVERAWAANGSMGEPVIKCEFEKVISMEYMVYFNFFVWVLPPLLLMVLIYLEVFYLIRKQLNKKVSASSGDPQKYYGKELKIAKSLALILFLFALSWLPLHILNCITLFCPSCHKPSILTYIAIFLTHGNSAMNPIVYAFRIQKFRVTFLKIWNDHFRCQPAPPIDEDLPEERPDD
Procedure: (§1) Dissociation constants at A1, A2A and A3 receptors (Ki-values) were determined in radioligand competition experiments as reported earlier [19,20]. All binding experiments were done in a microplate format utilizing a 96-well microplate filtration system (Millipore Multiscreen MAFC). As radioligands the agonists [3H]CCPA (1 nM) for A1, [3H]NECA (10 nM) for A2A, and [3H]HEMADO (1 nM) for A3 receptors were used. Samples were incubated with 10 µg of membrane protein for 3 h at 25 °C, filtered through the built-in filter at the bottom of the wells and washed three times with […] of ice-cold binding buffer. After addition of 20 µl of scintillator to the dried filter plates samples were counted in a Wallac Micro-Beta counter. Nonspecific binding was determined in the presence of 1 mM theophylline ([3H]CCPA) or […] (N6-phenylisopropyladenosine; [3H]NECA and [3H] HEMADO).

[2] = biological target: Adenosine receptor A2a (Homo sapiens, UniProt P29274)
Procedure: as §1

[3] = biological target: T2, Adenosine receptor A2b (Homo sapiens, UniProt P29275)
T2 sequence (P29275 whole entry): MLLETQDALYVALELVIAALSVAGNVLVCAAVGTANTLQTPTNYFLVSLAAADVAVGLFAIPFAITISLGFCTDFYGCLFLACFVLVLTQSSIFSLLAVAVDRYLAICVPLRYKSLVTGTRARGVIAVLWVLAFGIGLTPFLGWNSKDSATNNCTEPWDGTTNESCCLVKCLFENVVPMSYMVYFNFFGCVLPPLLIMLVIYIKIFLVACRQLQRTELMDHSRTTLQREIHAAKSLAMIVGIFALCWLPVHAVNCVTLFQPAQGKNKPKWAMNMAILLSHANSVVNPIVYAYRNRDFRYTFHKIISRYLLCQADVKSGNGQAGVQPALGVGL

Sequence of Adenosine receptor A2a (P29274 whole entry): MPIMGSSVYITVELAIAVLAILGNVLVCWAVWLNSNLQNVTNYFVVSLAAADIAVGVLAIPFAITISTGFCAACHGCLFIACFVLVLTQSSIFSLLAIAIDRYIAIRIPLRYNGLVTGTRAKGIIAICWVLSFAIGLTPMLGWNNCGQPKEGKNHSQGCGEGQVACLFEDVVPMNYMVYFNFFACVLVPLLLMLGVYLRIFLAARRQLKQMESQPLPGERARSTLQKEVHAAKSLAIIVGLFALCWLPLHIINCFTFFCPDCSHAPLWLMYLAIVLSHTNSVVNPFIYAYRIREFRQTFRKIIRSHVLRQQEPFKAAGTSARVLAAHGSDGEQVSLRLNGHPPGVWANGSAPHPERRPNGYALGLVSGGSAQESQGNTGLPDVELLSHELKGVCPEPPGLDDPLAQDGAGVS

SMILES | Ki [1] | Ki [2] | Ki [3]
COC(=O)COc1cc(-c2nc3c([nH]2)c(=O)n(C)c(=O)n3C)ccc1OC [1,3-Dimethyl-8-[{3-(2-methoxy-2-oxoethoxy)-4-methoxy}-phenyl]xanthine (16, RB-410)] | 11.8 µM | 0.717 µM | > 10 µM
COc1cc(-c2nc3c([nH]2)c(=O)n(C)c(=O)n3C)ccc1OCC(=O)NCCN(C)C [1,3-Dimethyl-8-[{4-(2-(dimethylaminoethylamino)-2-oxoethoxy)-3-methoxy}-phenyl]xanthine (15a, RB-386)] | 9.25 µM | 0.821 µM | 10 µM
COc1cc(-c2nc3c([nH]2)c(=O)n(C)c(=O)n3C)ccc1OCC(=O)N1CCCCCC1 [1,3-Dimethyl-8-[{4-(2-(hexamethyleneimin-1-yl)-2-oxoethoxy)-3-methoxy}-phenyl]xanthine (15e, RB-387)] | > 10 µM | 2.41 µM | 7.82 µM
COc1ccc(CCNC(=O)COc2ccc(-c3nc4c([nH]3)c(=O)n(C)c(=O)n4C)cc2OC)cc1OC [1,3-Dimethyl-8-[{4-(2-(homoveratrylamino)-2-oxoethoxy)-3-methoxy}-phenyl]-xanthine (15i, RB-389)] | > 30 µM | 0.843 µM | > 30 µM
COc1cc(-c2nc3c([nH]2)c(=O)n(C)c(=O)n3C)ccc1OCC(=O)n1ccnc1 [1,3-Dimethyl-8-[{4-(2-(imidazol-1-yl)-2-oxoethoxy)-3-methoxy}-phenyl]xanthine (15h, RB-390)] | > 30 µM | 7.74 µM | > 30 µM
COC(=O)COc1ccc(-c2nc3c([nH]2)c(=O)n(C)c(=O)n3C)cc1OC [1,3-Dimethyl-8-[{4-(2-methoxy-2-oxoethoxy)-3-methoxy}-phenyl]xanthine (15, RB-384)] | > 30 µM | 4.38 µM | > 10 µM
CCN(CC)CCNC(=O)COc1cccc(-c2nc3c([nH]2)c(=O)n(C)c(=O)n3C)c1 [8-[3-{2-(Diethylaminoethylamino)-2-oxoethoxy}-phenyl]-1,3-dimethylxanthine (14b, RB-378)] | 1.22 µM | 0.179 µM | 4.91 µM
CCN(CC)CCNC(=O)COc1ccc(-c2nc3c([nH]2)c(=O)n(C)c(=O)n3C)cc1 [8-[4-{2-(Diethylaminoethylamino)-2-oxoethoxy}-phenyl]-1,3-dimethylxanthine (13b, RB-421)] | 0.298 µM | 0.063 µM | 0.968 µM
CCN(CC)CCNC(=O)COc1cc(-c2nc3c([nH]2)c(=O)n(C)c(=O)n3C)ccc1OC [8-[{3-(2-(Diethylaminoethylamino)-2-oxoethoxy)-4-methoxy}phenyl]-1,3-dimethylxanthine (16b, RB-411)] | 1.97 µM | 0.126 µM | 8.05 µM
CCN(CC)CCNC(=O)COc1ccc(-c2nc3c([nH]2)c(=O)n(C)c(=O)n3C)cc1OC [8-[{4-(2-(Diethylaminoethylamino)-2-oxoethoxy)-3-methoxy}-phenyl]-1,3-dimethyl-xanthine (15b, RB-388)] | > 10 µM | 0.692 µM | > 10 µM
